Test results from patent US4808587A, “5-substituted pyrido[2,3-d]pyrimidine-2,4-diones” (Nippon Zoki Pharmaceutical Co., Ltd., priority 1986, dated 1989).

How the values were obtained:
[1] = tested on: PCA (Passive Cutaneous Anaphylaxis) reaction; test: Anti-allergic effect: PCA (Passive Cutaneous Anaphylaxis) reaction in rats; type: in vivo, Wister-strain male rats; conditions: Rattus norvegicus, oral, 1 hour before antigen challenge, dye leakage at 620 nm
Method: PCA (Passive Cutaneous Anaphylaxis) reaction in rats was taken as an index to an anti-allergic effect of the compound of the present invention.
In order to perform sensitization, anti-DNP-Asc (dinitrophenylated Ascaris extracts) serum diluted with saline was injected intradermally at 4 sites on the shaved back of groups of 6 Wister-strain male rats (6 weeks of age). 1 hour after oral administration of the test drug, the mixture of equivalent amount of DNP-Asc (5 mg/ml) and 2% Evans blue were intravenously injected to generate PCA reaction. 30 minutes thereafter, rats were killed by decapitation and exsanguinated. The skin was opened in order to evaluate the leakage of blue dye. The obtained skin was dissolved in 2N potassium hydroxide, then 2N phosphoric acid and acetone were added thereto. The amount of dye was determined by measurement of absorbance at 620 nm after centrifugation.

[2] = Acute toxicity test (oral, LD50); conditions: mouse, in vivo
Method: The test compounds were orally administered to groups of 5 ICR-strain male mice. LD50 value of the compound of the present invention was calculated by the LitchfieldWilcoxon's method based on mortality for 14 days after drug administration.

`Cn1c(=O)c2cccnc2n(C)c1=O` [Compound 2, 1,3-dimethylpyrido[2,3-d]pyrimidine-2,4-dione] showed an inhibition in vivo at 20 mg/kg [1] of 51.2%.
`Cn1c(=O)c2c(N)ccnc2n(C)c1=O` [Compound 4, 5-amino-1,3-dimethylpyrido[2,3-d]pyrimidine-2,4-dione] gave an inhibition in vivo at 20 mg/kg [1] of 68.7% and an LD50 at 336 h [2] of 850 mg/kg.
`CCn1c(=O)c2c(N)ccnc2n(CC)c1=O` [Compound 5, 5-amino-1,3-diethylpyrido[2,3-d]pyrimidine-2,4-dione] gave an inhibition in vivo at 20 mg/kg [1] of 79.2% and an LD50 at 336 h [2] of over 1000 mg/kg.
For `CNc1ccnc2c1c(=O)n(C)c(=O)n2C` [Compound 7, 5-methylamino-1,3-dimethylpyrido[2,3-d]pyrimidine-2,4-dione], the inhibition in vivo at 20 mg/kg [1] was 73.7% and the LD50 at 336 h [2] was 1050 mg/kg.
`CCn1c(=O)c2c(NC)ccnc2n(CC)c1=O` [Compound 8, 5-methylamino-1,3-diethylpyrido[2,3-d]pyrimidine-2,4-dione] gave an inhibition in vivo at 20 mg/kg [1] of 76.4%.
`C=CCNc1ccnc2c1c(=O)n(C)c(=O)n2C` [Compound 9, 5-allylamino-1,3-dimethylpyrido[2,3-d]pyrimidine-2,4-dione] showed an inhibition in vivo at 20 mg/kg [1] of 67.9% and an LD50 at 336 h [2] of over 1000 mg/kg.
With `CC(C)Nc1ccnc2c1c(=O)n(C)c(=O)n2C` [Compound 10, 5-isopropylamino-1,3-dimethylpyrido[2,3-d]pyrimidine-2,4-dione] the inhibition in vivo at 20 mg/kg [1] was 86.6% and the LD50 at 336 h [2] was 850 mg/kg.
Compound `Cn1c(=O)c2c(NO)ccnc2n(C)c1=O` [Compound 11, 5-hydroxyamino-1,3-dimethylpyrido[2,3-d]pyrimidine-2,4-dione] has an inhibition in vivo at 20 mg/kg [1] of 74% and an LD50 at 336 h [2] of over 1000 mg/kg.
For `Cn1c(=O)c2c(O)ccnc2n(C)c1=O` [Compound 14, 5-hydroxy1,3-dimethylpyrido[2,3-d]pyrimidine-2,4-dione], the inhibition in vivo at 20 mg/kg [1] was 49.9%.
Work on `Cn1c(=O)c2ccc(N)nc2n(C)c1=O` [Compound 15, 7-amino-1,3-dimethylpyrido[2,3-d]pyrimidine-2,4-dione] yielded an inhibition in vivo at 20 mg/kg [1] of 68.7% and an LD50 at 336 h [2] of over 1200 mg/kg.
`Cn1c(=O)c2cc(N)cnc2n(C)c1=O` [Compound 17, 6-amino-1,3-dimethylpyrido[2,3-d]pyrimidine-2,4-dione] showed an inhibition in vivo at 20 mg/kg [1] of 56.2%.
For `Cn1c(=O)c2[nH]cnc2n(C)c1=O` [Theophylline, reference compound], the inhibition in vivo at 20 mg/kg [1] was 57.9%.
